# Measurements taken from US20200030288A1, “STATIN FOR PREVENTION/REDUCTION OF ISCHEMIA-RELATED DAMAGE” (Fundacio Institut De Recerca De L'Hospial De La Santa Creu …, priority 2017, published 2020).
# Columns and labels:
# [1] = system: mouse model for myocardial ischemia; test: Mouse model of myocardial ischemia by coronary ligation: infarct size and 8-OH-dG oxidative damage; format: in vivo, Male CH3 mice; settings: single i.p. dose 15 min after coronary ligation, 45 min ischemia; for reduction of size of infarction (% of total LV wall): vs vehicle-control
# Method: (§1) Complete LAD coronary artery ligation was performed as follows. Male CH3 mice (8-10 weeks old, weighing 25-30 g) were intubated and anesthesized with a mixture of O2/isoflurane and mechanically ventilated (rate 90 breaths/min, tidal volume 0.1 mL). Rectal temperature was continuously monitored throughout the surgery and maintained within 37-38° C. using a heat pad and heat lamp. An anterior thoracotomy was performed; the heart was exposed and the LAD coronary artery was occluded with an intramural stitch (7-0 silk suture; consistent ligation of the left coronary artery as it emerges from under the left atrium) for 45 minutes. Success of complete coronary ligation was verified by electrocardiographic visualization of the ST-elevation-MI pattern that was monitored by high frequency ultrasounds with the Vevo2100 from Visualsonics and by the visualization of a pale, hypokinetic ventricle distal to the site of occlusion.
# Ischemia was continued for another 30 min after administration of the single dose (i.e. altogether 45 min of ischemia), then mice were sacrificed and the heart was carefully excised for infarct size analysis.
# Infarct size was determined by morphometric analysis. For this purpose, all mouse hearts were immersed in fixative solution (4% paraformaldehyde), embedded in OCT compound and cross-sectioned from apex to base (10 μm thick sections 200 μm distanced). Sections were stained with haematoxylin and eosin and morphometric infarct size analysis was determined using image analysis software (ImageJ, NIH). Infarct size was calculated by the sum of myocardial infarct areas between sections and expressed as a percentage of total LV wall. Three measurements per section were determined.
# In addition, myocardial oxidative damage was also assessed. For this purpose, ischemic myocardial tissue was cut into 5-μm-thick slices for 8-OH-dG (Abcam ab48508) staining, a measurement indicative of oxidative stress-induced DNA-damage. Staining was calculated by a single blinded observer from an average of 5-fields/animal as % of stained area. Images were captured by Nikon Eclipse 80i microscope and digitized by Retiga 1300i Fast camera.
# [2] = system: mouse model of myocardial ischemia; test: Mouse coronary ligation model with AMPK inhibitor given before atorvastatin; format: in vivo, mice; settings: Compound C 30 mg/kg i.p. prior to atorvastatin 0.3 mg/kg at 15 min of ischemia; 45 min ischemia
# Method: as §1
# Infarct size was determined by morphometric analysis. […] Sections were stained with haematoxylin and eosin and morphometric infarct size analysis was determined using image analysis software (ImageJ, NIH). Infarct size was calculated by the sum of myocardial infarct areas between sections and expressed as a percentage of total LV wall. Three measurements per section were determined.
# In addition, myocardial oxidative damage was also assessed. […]
# [3] = system: pig model of ischemia and reperfusion; test: Pig model of ischemia and reperfusion (hypercholesterolemic diet, 90 min occlusion, 2.5 h reperfusion); format: in vivo, pigs; settings: 0.3 mg/kg i.v. after 75 min of ischemia
# Method: Pigs were fed a hypercholesterolemic diet as in Example 11. After this 10-day diet period animals underwent a closed-chest 90 min mid-left anterior descending (LAD) coronary balloon occlusion. After 75 min of ischemia animals were randomized to intravenous infusion (femoral vein) of an active β-hydroxy acid derivative of simvastatin (R—OH—S; 0.3 mg/kg; n=12) or vehicle (0.9% NaCl; n=12). At minute 90, the balloon was deflated to achieve coronary artery reperfusion. Animals were reperfused for 2.5 h. Infarct size was determined morphometrically by Evan's Blue staining. To that end, 2.5 h post-reperfusion Evan's Blue dye was injected in the anesthetized pigs through the left atrium to outline the area-at-risk (AAR) after which the animals' hearts were arrested with potassium chloride and rapidly excised. Hearts were sectioned into 6 transverse slices parallel to the atrioventricular ring. Consecutive slices were alternatively collected for infarct size analysis (triphenyl tetrazolium chloride) and molecular studies of the ischemic and non-ischemic myocardium. Tissue samples obtained from the ischemic and non-ischemic myocardium all animals were pulverized and homogenized in Tripure® or lysis buffer for RNA and protein isolation, respectively. Protein levels of apoptosis markers (truncated-caspase-3) was assessed. Paraffin-embedded ischemic myocardial tissue of all animals was cut into 5-μm-thick slices for 8-hydroxyguanosine staining (Abcam ab48508), a measurement indicative of oxidative stress-induced DNA-damage, and OCT-embedded ischemic myocardial tissue of all animals was stained for neutrophil detection (anti-Neutrophil Elastase; Abcam). Staining was calculated by a single blinded observer from an average of 5-fields/animal as % of stained area. Images were captured by Nikon Eclipse 80i microscope and digitized by Retiga 1300i Fast camera. In addition, mitochondrial membrane potential (Δψm) was measured in the ischemic myocardium of all animals by flow cytometry using the ratiometric dye 5,5′,6,6′-tetrachloro-1,1′,3,3′-tetraethylbenzimidazol carbocyanine iodide (JC-1; Molecular Probes). Values were expressed as red fluorescence activity. Isolated mitochondria treated with valinomycin (Sigma), which decreases Δψm, were used as control (data not shown).
# [4] = ischemic myocardial tissue, 2.5 h reperfusion
SMILES,reduction of oxidative damage (8-OH-dG staining) within the ischemic myocardium [1],reduction of size of infarction (% of total LV wall) [1],effect on infarct size reduction achieved by atorvastatin [2],effect on protection against oxidative damage (8-OHdG staining) [2],size of myocardial damage (ischemic damage+reperfusion damage; infarct size) ([3]; assessed 2.5 h after reperfusion),"expression of cleaved caspase-3 [3, 4]","mitochondrial potential (JC-1) [3, 4]","oxidative stress (8-hydroxyguanosine staining) [3, 4]","recruitment of neutrophils [3, 4]"
CC(ONC(=O)c1cc(C(F)(F)F)cc(C(F)(F)F)c1)C(=O)Nc1ccc(Cl)cc1 (stereo not shown) [CCG1423],70%,around 50%,–,–,–,–,–,–,–
c1cc(-c2cnn3cc(-c4ccc(OCCN5CCCCC5)cc4)cnc23)ccn1 [Compound C],–,–,abolished,abolished,–,–,–,–,–
"CCC(C)(C)C(=O)OC1CC(C)C=C2C=CC(C)C(CCC(O)CC(O)CC(=O)O)C21 (stereo not drawn) [β-OH-simvastatin, β-hydroxy acid form of simvastatin]",–,around 50%,–,–,decreased,significantly reduced,preserved,decreased,limited
